# Data reported in patent US20080039438A1, “1B-Methylcarbapenem Derivative and Process for the Preparation Thereof” (Korea Institute of Science and Technology, priority 2004, published 2008).
# Assays:
# Assay type in all cases: cell-based
# Providentia sp. = experiment: MIC against clinically isolated aerobic Gram-negative strains; details: 13 strains
# [1] = tested on: Staphylococcus aureus SG511; experiment: MIC against standard strains (agar dilution); details: standard strain Staphylococcus aureus SG511, 37° C., 18 to 20 hours, read-out: Minimum Inhibitory Concentration (MIC)
# Enterococcus faecalis = experiment: MIC against clinically isolated aerobic Gram-positive strains; details: 30 strains
# Haemophilus influenzae = experiment: MIC against clinically isolated aerobic Gram-negative strains; details: 24 strains
# Streptococcus pneumoniae = experiment: MIC against clinically isolated aerobic Gram-positive strains; details: 22 strains
# [2] = tested on: Klebsiella aerogenes 1522E; experiment: MIC against standard strains (agar dilution); details: standard strain Klebsiella aerogenes 1522E, 37° C., 18 to 20 hours, read-out: Minimum Inhibitory Concentration (MIC)
# Streptococcus agalactiae = experiment: MIC against clinically isolated aerobic Gram-positive strains; details: 15 strains
# Moraxella catarrhalis = experiment: MIC against clinically isolated aerobic Gram-negative strains; details: 24 strains
# [3] = tested on: Methicillin-sensitive Staphylococcus aureus; experiment: MIC against clinically isolated aerobic Gram-positive strains; details: 33 strains
# Citrobacter freundii = experiment: MIC against clinically isolated aerobic Gram-negative strains; details: 14 strains
# Salmonella typhimurium = experiment: MIC against standard strains (agar dilution); details: Salmonella enterica, standard strain Salmonella typhimurium, 37° C., 18 to 20 hours, read-out: Minimum Inhibitory Concentration (MIC)
# Clostridium perfringens = experiment: microbe, parasite or virus in culture; details: Clostridium perfringens
# Enterobacter aerogenes = experiment: MIC against clinically isolated aerobic Gram-negative strains; details: 14 strains
# [4] = tested on: Pseudomonas aeruginosa 1771M; experiment: MIC against standard strains (agar dilution); details: read-out: Minimum Inhibitory Concentration (MIC)
# Klebsiella cxytoca 1082E = experiment: MIC against standard strains (agar dilution); details: standard strain Klebsiella cxytoca 1082E, 37° C., 18 to 20 hours, read-out: Minimum Inhibitory Concentration (MIC)
# Acinetobacter baumannii = experiment: MIC against clinically isolated aerobic Gram-negative strains; details: 30 strains
# Morganella morganii = experiment: as above; details: 15 strains
# [5] = tested on: Streptococcus faecium MD 8b; experiment: MIC against standard strains (agar dilution); details: Enterococcus faecium, MD8B, standard strain Streptococcus faecium MD 8b, 37° C., 18 to 20 hours, read-out: Minimum Inhibitory Concentration (MIC)
# Klebsiella pneumoniae = experiment: MIC against clinically isolated aerobic Gram-negative strains; details: 30 strains
# Bacteroides fragilis = experiment: MIC against clinically isolated anaerobic Gram-negative strains; details: 34 strains
# Klebsiella oxytoca = experiment: MIC against clinically isolated aerobic Gram-negative strains; details: 15 strains
# Escherichia coli DC 2 = experiment: MIC against standard strains (agar dilution); details: DC2; standard strain Escherichia coli DC 2; agar, 37° C., 18 to 20 hours; read-out: Minimum Inhibitory Concentration (MIC)
# Serratia marcescens = experiment: MIC against clinically isolated aerobic Gram-negative strains; details: 14 strains
# Escherichia coli 1507E = experiment: MIC against standard strains (agar dilution); details: standard strain Escherichia coli 1507E, 37° C., 18 to 20 hours, read-out: Minimum Inhibitory Concentration (MIC)
# [6] = tested on: Pseudomonas aeruginosa 9027; experiment: MIC against standard strains (agar dilution); details: standard strain Pseudomonas aeruginosa 9027, 37° C., 18 to 20 hours, read-out: Minimum Inhibitory Concentration (MIC)
# [7] = tested on: Streptococcus pyogenes 77A; experiment: MIC against standard strains (agar dilution); details: standard strain Streptococcus pyogenes 77A, 37° C., 18 to 20 hours, read-out: Minimum Inhibitory Concentration (MIC)
# Escherichia coli TEM = experiment: MIC against standard strains (agar dilution); details: standard strain Escherichia coli TEM, 37° C., 18 to 20 hours, read-out: Minimum Inhibitory Concentration (MIC)
# Escherichia coli = experiment: MIC against clinically isolated aerobic Gram-negative strains; details: 30 strains
# Enterobacter cloacae P99 = experiment: MIC against standard strains (agar dilution); details: standard strain Enterobacter cloacae P99, 37° C., 18 to 20 hours, read-out: Minimum Inhibitory Concentration (MIC)
# [8] = tested on: Staphylococcus aureus 285; experiment: MIC against standard strains (agar dilution); details: standard strain Staphylococcus aureus 285, 37° C., 18 to 20 hours, read-out: Minimum Inhibitory Concentration (MIC)
# Escherichia coli DC 0 = experiment: MIC against standard strains (agar dilution); details: DC0, standard strain Escherichia coli DC 0, 37° C., 18 to 20 hours, read-out: Minimum Inhibitory Concentration (MIC)
smiles,measurement,setting,value
"C[C@@H](O)[C@H]1C(=O)N2C(C(=O)O)=C(S[C@@H]3CN[C@H](/C=C/c4cc(C(=O)O)no4)C3)[C@H](C)[C@H]12 [Example, (1R,5S,6S,8R,3′S,5′S)-2-{5′-[(E)-2-(3-carboxylic acid or sodium carboxylate-5-isoxazolo)ethenyl]pyrrolidin-3′-ylthio}-6-(1-hydroxyethyl)-1-methylcarbapen-2-em-3-carboxylic acid]",MIC50,Providentia sp.,0.06 µg/mL
same,MIC90,Providentia sp.,8 µg/mL
same,MIC Range,Providentia sp.,8 to 8000 ng/mL
same,MIC,[1],0.098 µg/mL
same,MIC50,Enterococcus faecalis,8 µg/mL
same,MIC90,Enterococcus faecalis,32 µg/mL
same,MIC Range,Enterococcus faecalis,4 to 32 µg/mL
same,MIC50,Haemophilus influenzae,0.25 µg/mL
same,MIC90,Haemophilus influenzae,4 µg/mL
same,MIC Range,Haemophilus influenzae,0.25 to 8 µg/mL
same,MIC50,Streptococcus pneumoniae,8 ng/mL
same,MIC90,Streptococcus pneumoniae,0.12 µg/mL
same,MIC Range,Streptococcus pneumoniae,8 to 250 ng/mL
same,MIC,[2],0.049 µg/mL
same,MIC50,Streptococcus agalactiae,8 ng/mL
same,MIC90,Streptococcus agalactiae,0.015 µg/mL
same,MIC Range,Streptococcus agalactiae,8 to 15 ng/mL
same,MIC50,Moraxella catarrhalis,0.03 µg/mL
same,MIC90,Moraxella catarrhalis,0.06 µg/mL
same,MIC Range,Moraxella catarrhalis,0.015 to 0.06 µg/mL
same,MIC50,[3],0.12 µg/mL
same,MIC90,[3],0.12 µg/mL
same,MIC Range,[3],0.06 to 0.12 µg/mL
same,MIC50,Citrobacter freundii,0.03 µg/mL
same,MIC90,Citrobacter freundii,0.12 µg/mL
same,MIC Range,Citrobacter freundii,0.015 to 0.25 µg/mL
same,MIC,Salmonella typhimurium,0.049 µg/mL
same,MIC50,Clostridium perfringens,0.06 µg/mL
same,MIC90,Clostridium perfringens,0.12 µg/mL
same,MIC Range,Enterobacter aerogenes,0.015 to 0.12 µg/mL
same,MIC50,Enterobacter aerogenes; Klebsiella aerogenes,0.06 µg/mL
same,MIC90,Enterobacter aerogenes; Klebsiella aerogenes,0.25 µg/mL
same,MIC,[4],0.391 µg/mL
same,MIC,Klebsiella cxytoca 1082E,0.049 µg/mL
same,MIC50,Acinetobacter baumannii,8 µg/mL
same,MIC90,Acinetobacter baumannii,64 µg/mL
same,MIC Range,Acinetobacter baumannii,2 to 128 µg/mL
same,MIC50,Morganella morganii,0.03 µg/mL
same,MIC90,Morganella morganii,0.06 µg/mL
same,MIC Range,Morganella morganii,0.03 to 0.12 µg/mL
same,MIC,[5],12.5 µg/mL
same,MIC50,Klebsiella pneumoniae,0.03 µg/mL
same,MIC90,Klebsiella pneumoniae,0.12 µg/mL
same,MIC Range,Klebsiella pneumoniae,0.015 to 0.25 µg/mL
same,MIC50,Bacteroides fragilis,0.5 µg/mL
same,MIC90,Bacteroides fragilis,1 µg/mL
same,MIC Range,Bacteroides fragilis,0.25 to 4 µg/mL
same,MIC50,Klebsiella oxytoca,0.03 µg/mL
same,MIC90,Klebsiella oxytoca,0.03 µg/mL
same,MIC Range,Klebsiella oxytoca,0.015 to 0.25 µg/mL
same,MIC,Escherichia coli DC 2,0.025 µg/mL
same,MIC50,Serratia marcescens,0.03 µg/mL
same,MIC90,Serratia marcescens,16 µg/mL
same,MIC Range,Serratia marcescens,0.03 to 16 µg/mL
same,MIC,Escherichia coli 1507E,0.025 µg/mL
same,MIC,[6],0.098 µg/mL
same,MIC,[7],0.049 µg/mL
same,MIC,Escherichia coli TEM,0.025 µg/mL
same,MIC50,Escherichia coli,0.03 µg/mL
same,MIC90,Escherichia coli,0.25 µg/mL
same,MIC Range,Escherichia coli,8 to 2000 ng/mL
same,MIC,Enterobacter cloacae P99,0.098 µg/mL
same,MIC,[8],0.195 µg/mL
same,MIC,Escherichia coli DC 0,0.025 µg/mL
